According to US10287252B2, “Inhibitors of tryptophan-2,3-dioxygenase or indoleamine-2,3-dioxygenase” (IOmet Pharma Ltd., priority 2014, dated 2019):

Experiments:
[1] = molecular target: T1, TDO (Homo sapiens, UniProt P48775); assay: A172 Kynurenine cell based assay; set-up: This assay utilised cancer cells which expressed either TDO or IDO; endogenous in cells; host or cells: A172 (human glioblastoma); conditions: A172 (human glioblastoma) cells, 500 μM L-tryptophan, 48 hours, kynurenine by Erhlich's reagent
T1 sequence (P48775 whole entry): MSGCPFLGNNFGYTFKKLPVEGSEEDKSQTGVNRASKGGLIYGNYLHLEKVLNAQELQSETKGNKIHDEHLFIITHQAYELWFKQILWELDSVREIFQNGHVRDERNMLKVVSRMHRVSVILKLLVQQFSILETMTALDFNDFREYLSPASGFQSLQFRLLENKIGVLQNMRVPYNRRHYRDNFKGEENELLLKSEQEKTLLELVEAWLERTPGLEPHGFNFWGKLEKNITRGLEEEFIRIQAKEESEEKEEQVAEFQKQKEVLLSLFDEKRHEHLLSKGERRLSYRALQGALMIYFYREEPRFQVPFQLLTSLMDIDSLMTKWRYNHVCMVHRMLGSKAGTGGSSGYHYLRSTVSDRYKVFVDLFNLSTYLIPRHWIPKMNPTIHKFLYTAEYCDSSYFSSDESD
Method: (§1) Exemplary compounds of the invention were prepared, and tested to determine their effect as TDO and/or IDO inhibitors. Two different assays were employed: 1. a cell-based assay for detecting the effect of test compounds on kynurenine production in two different cancer cell types. This assay utilised cancer cells which expressed either TDO or IDO and as such was used as a means of testing compound activity at these two enzymes in a cell-based context. 2. a TDO and IDO biochemical coupled assay which utilised recombinantly produced and purified TDO and IDO enzymes in combination with the enzyme formamidase. This coupled enzyme system allowed conversion of N-formylkynurenine produced by TDO or IDO activity to kynurenine which was then quantified by fluorescence following addition of Erhlich's Reagent The protocols for these are set out below.
(§2) Cell Based Assay for Detection of Kynurenine Produced by TDO and/or IDO
(§3) A172 (human glioblastoma) and SKOV3 (human ovarian adenocarcinoma) cells were seeded in a 96 well plate at 30,000 or 40,000 cells per well respectively in phenol red-free RPMI supplemented with 10% FCS, 2 mM L-glutamine and 500 μM L-tryptophan. IDO expression was induced in the SKOV3 cells by the addition of 500 ng/ml IFN-γ. Cells were incubated at 37° C. with or without the addition of test compound. After 48 hours, the cells were removed by centrifugation and Erhlich's reagent was added to the supernatant. The Erhlich's reagent was incubated for 5 minutes before the absorbance was read at 490 nm.

[2] = molecular target: T2, IDO (Homo sapiens, UniProt P14902); assay: hIDO biochemical coupled assay; conditions: 45 μM L-tryptophan, coupled with kynurenine formamidase
T2 sequence (P14902 whole entry): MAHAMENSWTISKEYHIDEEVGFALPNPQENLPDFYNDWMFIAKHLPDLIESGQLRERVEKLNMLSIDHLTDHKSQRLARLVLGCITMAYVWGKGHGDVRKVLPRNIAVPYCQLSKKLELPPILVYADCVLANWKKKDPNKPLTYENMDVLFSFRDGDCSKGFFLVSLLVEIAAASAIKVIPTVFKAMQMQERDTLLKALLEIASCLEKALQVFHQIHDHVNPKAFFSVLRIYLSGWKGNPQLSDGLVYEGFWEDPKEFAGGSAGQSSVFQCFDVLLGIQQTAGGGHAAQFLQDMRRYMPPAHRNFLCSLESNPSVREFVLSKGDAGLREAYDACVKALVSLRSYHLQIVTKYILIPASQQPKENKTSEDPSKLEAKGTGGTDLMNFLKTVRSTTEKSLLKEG
Method: as §1
(§4) TDO and IDO Biochemical Coupled Assay
(§5) Recombinant human IDO or TDO was incubated in 50 mM KPO4 (pH 7.0), 0.5 mM EGTA, 0.5 mM EDTA, 0.05% Triton™ X100, 20 mM ascorbate, 10 μM methylene blue, 500 U/ml catalase, 50 μg/ml KynB (kynurenine formamidase). TDO assays were carried out in the presence of 330 μM L-tryptophan, while IDO assays had the addition of 45 μM L-tryptophan. After incubation for 17 minutes at room temperature the reactions were stopped by the addition of Erhlich's reagent and incubated at room temperature for 5 minutes before the fluorescence was read (Ex475, Em530).

[3] = molecular target: T2, IDO; assay: SKOV3 Kynurenine cell based assay; set-up: IDO expression was induced in the SKOV3 cells by the addition of 500 ng/ml IFN-γ; endogenous in cells; host or cells: SKOV3 (human ovarian adenocarcinoma), induced with IFN-γ; conditions: SKOV3 (human ovarian adenocarcinoma) cells, IDO induced by 500 ng/ml IFN-γ, 500 μM L-tryptophan, 48 hours
Method: as §1, §2, §3

[4] = molecular target: T1, TDO; assay: hTDO biochemical coupled assay; conditions: 330 μM L-tryptophan, coupled with kynurenine formamidase
Method: as §1, §4, §5

SMILES	A172 Kynurenine cell based assay pIC50 [1]	hIDO biochemical assay pIC50 [2]	SKOV3 Kynurenine cell based assay pIC50 [3]	hTDO biochemical assay pIC50 [4]
Cc1cc2c(NS(=O)(=O)c3ccccc3)cccc2nn1 [Compound 1]	+ (+ = pIC50 4.00-4.49)	++ (++ = pIC50 4.50-5.49)	+ (+ = pIC50 4.00-4.49)	++ (++ = pIC50 4.50-5.49)
Cc1cc2c(NC(=O)c3ccc4ncccc4c3)cccc2nn1 [Compound 2]	+ (+ = pIC50 4.00-4.49)	+/− (+/− = pIC50 <4.00)	+ (+ = pIC50 4.00-4.49)	++ (++ = pIC50 4.50-5.49)
Cc1cc2c(NC(=O)c3ccc4ccccc4n3)cccc2nn1 [Compound 3]	+ (+ = pIC50 4.00-4.49)	+/− (+/− = pIC50 <4.00)	+/− (+/− = pIC50 <4.00)	+ (+ = pIC50 4.00-4.49)
O=C(Nc1cccc2cnccc12)C1COc2ccccc2C1 (centres unmarked) [Compound 6]	+ (+ = pIC50 4.00-4.49)	+++ (+++ = pIC50 ≥5.50)	++ (++ = pIC50 4.50-5.49)	+++ (+++ = pIC50 ≥5.50)
O=S(=O)(Nc1cccc2ccncc12)c1ccc(-c2ccccc2)cc1 [Compound 54]	+ (+ = pIC50 4.00-4.49)	–	+ (+ = pIC50 4.00-4.49)	–
O=S(=O)(Nc1cccc2ccncc12)c1ccccc1 [Compound 56]	+/− (+/− = pIC50 <4.00)	+ (+ = pIC50 4.00-4.49)	+ (+ = pIC50 4.00-4.49)	+/− (+/− = pIC50 <4.00)
O=S(=O)(Nc1cc(Cl)cc2cnccc12)c1ccc(Cl)cc1 [Compound 57]	+/− (+/− = pIC50 <4.00)	+ (+ = pIC50 4.00-4.49)	++ (++ = pIC50 4.50-5.49)	+/− (+/− = pIC50 <4.00)
CC(C)Oc1ccc(S(=O)(=O)Nc2cc(Cl)cc3cnccc23)cc1 [Compound 58]	+/− (+/− = pIC50 <4.00)	+ (+ = pIC50 4.00-4.49)	++ (++ = pIC50 4.50-5.49)	+/− (+/− = pIC50 <4.00)

More lines, now with the values ahead:

A172 Kynurenine cell based assay pIC50 [1]	hIDO biochemical assay pIC50 [2]	SKOV3 Kynurenine cell based assay pIC50 [3]	hTDO biochemical assay pIC50 [4]	SMILES
+ (+ = pIC50 4.00-4.49)	++ (++ = pIC50 4.50-5.49)	+/− (+/− = pIC50 <4.00)	+++ (+++ = pIC50 ≥5.50)	CC(C)CS(=O)(=O)Nc1cccc2cnccc12 [Compound 4]
+++ (+++ = pIC50 ≥5.50)	++ (++ = pIC50 4.50-5.49)	++ (++ = pIC50 4.50-5.49)	++ (++ = pIC50 4.50-5.49)	O=S(=O)(Nc1cccc2cnccc12)c1ccccc1 [Compound 9]
+++ (+++ = pIC50 ≥5.50)	++ (++ = pIC50 4.50-5.49)	++ (++ = pIC50 4.50-5.49)	–	COc1cccc(S(=O)(=O)Nc2cccc3cnccc23)c1 [Compound 14]
++ (++ = pIC50 4.50-5.49)	++ (++ = pIC50 4.50-5.49)	++ (++ = pIC50 4.50-5.49)	+ (+ = pIC50 4.00-4.49)	O=S(=O)(Nc1cccc2cnccc12)c1cccc2ccccc12 [Compound 16]
+ (+ = pIC50 4.00-4.49)	–	++ (++ = pIC50 4.50-5.49)	–	O=S(=O)(Nc1cccc2ccncc12)c1ccc(Cl)cc1 [Compound 55]
